The source of these data is the supplement of paper PMC10307832.

Structures are written as SMILES.

The subject of the first assay is NCI-H322M. The assay is described as follows: relative viability (nuclei count vs DMSO), 5 days (fraction); higher = more cells survive. To be noted: first compound 6.325 µM. A digest of the protocol:
(§1)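 A single step with final 0.05% Triton X-100, 1% formaldehyde and 1 ug/ml Hoechst fixed the cells and stained nuclei 5 days after treatment. Lung cancer cell lines in 1536-well plates had been treated by pin tool the day after seeding with one drug alone or a fixed anchor-drug dose plus five library-drug doses (not always all listed) in √10 steps, and nuclei were counted on 4× images. Relative viability is the ratio of nuclei in treated wells to nuclei in vehicle wells, taken as the median of duplicate plates.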
`COCC1(CO)C(=O)C2CCN1CC2` (stereo unspecified) [PRIMA-1MET] + CC(=O)Nc1cccc(-n2c(=O)n(C3CC3)c(=O)c3c(Nc4ccc(I)cc4F)n(C)c(=O)c(C)c32)c1 [Trametinib] (partner 0.02 µM) came in with a relative viability of 0.468.
As for `COCC1(CO)C(=O)C2CCN1CC2` (stereo unspecified) [PRIMA-1MET] + Nc1ncn([C@H]2C[C@H](O)[C@@H](CO)O2)c(=O)n1 [Decitabine] (partner 2 µM), the relative viability worked out at 0.714.

Staying with this assay, now noted: first compound 20 µM.
Consider `COCC1(CO)C(=O)C2CCN1CC2` (stereo unspecified) [PRIMA-1MET] + COc1cc2c(Oc3ccc(NC(=O)C4(C(=O)Nc5ccc(F)cc5)CC4)cc3F)ccnc2cc1OCCCN1CCOCC1 [Foretinib] (partner 0.25 µM), for which the relative viability is 0.931.
Take `COCC1(CO)C(=O)C2CCN1CC2` (stereo unspecified) [PRIMA-1MET] + NC(=O)Nc1cc(-c2cccc(F)c2)sc1C(=O)N[C@H]1CCCNC1 [AZD7762] (partner 0.2 µM): the relative viability was 0.406.
Consider `COCC1(CO)C(=O)C2CCN1CC2` (stereo unspecified) [PRIMA-1MET] + Nc1nc2[nH]cc(CCc3ccc(C(=O)N[C@@H](CCC(=O)O)C(=O)O)cc3)c2c(=O)[nH]1 [Pemetrexed] (partner 0.2 µM), for which the relative viability is 0.0887.
On the same count and under the same terms, under `COCC1(CO)C(=O)C2CCN1CC2` (stereo unspecified) [PRIMA-1MET] + CC(=O)Nc1cccc(-n2c(=O)n(C3CC3)c(=O)c3c(Nc4ccc(I)cc4F)n(C)c(=O)c(C)c32)c1 [Trametinib] (partner 0.02 µM) stands 0.45; under `COCC1(CO)C(=O)C2CCN1CC2` (stereo unspecified) [PRIMA-1MET] + Nc1ncn([C@H]2C[C@H](O)[C@@H](CO)O2)c(=O)n1 [Decitabine] (partner 2 µM), 0.6.

For the next assay, the system named is NCI-H2228. The assay is described as above. Particulars: first compound 0.2 µM. Put shortly:
as §1
`COCC1(CO)C(=O)C2CCN1CC2` (stereo unspecified) [PRIMA-1MET] + COc1cc2c(Oc3ccc(NC(=O)C4(C(=O)Nc5ccc(F)cc5)CC4)cc3F)ccnc2cc1OCCCN1CCOCC1 [Foretinib] (partner 0.25 µM) showed a relative viability of 0.973.
Same read-out and setting: the same measure for `COCC1(CO)C(=O)C2CCN1CC2` (stereo unspecified) [PRIMA-1MET] + Nc1nc2[nH]cc(CCc3ccc(C(=O)N[C@@H](CCC(=O)O)C(=O)O)cc3)c2c(=O)[nH]1 [Pemetrexed] (partner 0.2 µM): 0.351.
For `COCC1(CO)C(=O)C2CCN1CC2` (stereo unspecified) [PRIMA-1MET] + CC(=O)Nc1cccc(-n2c(=O)n(C3CC3)c(=O)c3c(Nc4ccc(I)cc4F)n(C)c(=O)c(C)c32)c1 [Trametinib] (partner 0.02 µM), the relative viability was determined as 0.197.

Staying with this assay, now noted: first compound 0.6325 µM.
`COCC1(CO)C(=O)C2CCN1CC2` (stereo unspecified) [PRIMA-1MET] + COc1cc2c(Oc3ccc(NC(=O)C4(C(=O)Nc5ccc(F)cc5)CC4)cc3F)ccnc2cc1OCCCN1CCOCC1 [Foretinib] (partner 0.25 µM) registered a relative viability of 0.938.
For `COCC1(CO)C(=O)C2CCN1CC2` (stereo unspecified) [PRIMA-1MET] + Nc1nc2[nH]cc(CCc3ccc(C(=O)N[C@@H](CCC(=O)O)C(=O)O)cc3)c2c(=O)[nH]1 [Pemetrexed] (partner 0.2 µM), the relative viability was determined as 0.332.
In the case of `COCC1(CO)C(=O)C2CCN1CC2` (stereo unspecified) [PRIMA-1MET] + CC(=O)Nc1cccc(-n2c(=O)n(C3CC3)c(=O)c3c(Nc4ccc(I)cc4F)n(C)c(=O)c(C)c32)c1 [Trametinib] (partner 0.02 µM), the relative viability was 0.371.

The assay is the same for the next values; noted with them: first compound 2 µM.
In turn, `COCC1(CO)C(=O)C2CCN1CC2` (stereo unspecified) [PRIMA-1MET] + COc1cc2c(Oc3ccc(NC(=O)C4(C(=O)Nc5ccc(F)cc5)CC4)cc3F)ccnc2cc1OCCCN1CCOCC1 [Foretinib] (partner 0.25 µM) gave a relative viability of 0.87.
On the same count and under the same terms, the same measure for `COCC1(CO)C(=O)C2CCN1CC2` (stereo unspecified) [PRIMA-1MET] + Nc1nc2[nH]cc(CCc3ccc(C(=O)N[C@@H](CCC(=O)O)C(=O)O)cc3)c2c(=O)[nH]1 [Pemetrexed] (partner 0.2 µM): 0.3; for `COCC1(CO)C(=O)C2CCN1CC2` (stereo unspecified) [PRIMA-1MET] + CC(=O)Nc1cccc(-n2c(=O)n(C3CC3)c(=O)c3c(Nc4ccc(I)cc4F)n(C)c(=O)c(C)c32)c1 [Trametinib] (partner 0.02 µM): 0.822.

The same assay, now with this note: first compound 6.325 µM.
In turn, `COCC1(CO)C(=O)C2CCN1CC2` (stereo unspecified) [PRIMA-1MET] + COc1cc2c(Oc3ccc(NC(=O)C4(C(=O)Nc5ccc(F)cc5)CC4)cc3F)ccnc2cc1OCCCN1CCOCC1 [Foretinib] (partner 0.25 µM) gave a relative viability of 0.952.
For the molecule `COCC1(CO)C(=O)C2CCN1CC2` (stereo unspecified) [PRIMA-1MET] + Nc1nc2[nH]cc(CCc3ccc(C(=O)N[C@@H](CCC(=O)O)C(=O)O)cc3)c2c(=O)[nH]1 [Pemetrexed] (partner 0.2 µM), the relative viability came out at 0.305.
The molecule `COCC1(CO)C(=O)C2CCN1CC2` (stereo unspecified) [PRIMA-1MET] + CC(=O)Nc1cccc(-n2c(=O)n(C3CC3)c(=O)c3c(Nc4ccc(I)cc4F)n(C)c(=O)c(C)c32)c1 [Trametinib] (partner 0.02 µM) came in with a relative viability of 0.335.

Still in this assay, the particulars now being: first compound 20 µM.
Molecule `COCC1(CO)C(=O)C2CCN1CC2` (stereo unspecified) [PRIMA-1MET] + COc1cc2c(Oc3ccc(NC(=O)C4(C(=O)Nc5ccc(F)cc5)CC4)cc3F)ccnc2cc1OCCCN1CCOCC1 [Foretinib] (partner 0.25 µM) came in with a relative viability of 0.0309.
Take `COCC1(CO)C(=O)C2CCN1CC2` (stereo unspecified) [PRIMA-1MET] + Nc1nc2[nH]cc(CCc3ccc(C(=O)N[C@@H](CCC(=O)O)C(=O)O)cc3)c2c(=O)[nH]1 [Pemetrexed] (partner 0.2 µM): the relative viability is 0.0521.
The molecule `COCC1(CO)C(=O)C2CCN1CC2` (stereo unspecified) [PRIMA-1MET] + CC(=O)Nc1cccc(-n2c(=O)n(C3CC3)c(=O)c3c(Nc4ccc(I)cc4F)n(C)c(=O)c(C)c32)c1 [Trametinib] (partner 0.02 µM) registered a relative viability of 0.0574.

Another assay concerns NCI-H2342. The description is as above. Particulars: first compound 0.2 µM. Put shortly:
as §1
Take `COCC1(CO)C(=O)C2CCN1CC2` (stereo unspecified) [PRIMA-1MET] + COc1cc2c(Oc3ccc(NC(=O)C4(C(=O)Nc5ccc(F)cc5)CC4)cc3F)ccnc2cc1OCCCN1CCOCC1 [Foretinib] (partner 0.25 µM): the relative viability was 1.06.
The molecule `COCC1(CO)C(=O)C2CCN1CC2` (stereo unspecified) [PRIMA-1MET] + NC(=O)Nc1cc(-c2cccc(F)c2)sc1C(=O)N[C@H]1CCCNC1 [AZD7762] (partner 0.2 µM) returned a relative viability of 0.566.
`COCC1(CO)C(=O)C2CCN1CC2` (stereo unspecified) [PRIMA-1MET] + Nc1nc2[nH]cc(CCc3ccc(C(=O)N[C@@H](CCC(=O)O)C(=O)O)cc3)c2c(=O)[nH]1 [Pemetrexed] (partner 0.2 µM) displayed a relative viability of 0.789.
As for `COCC1(CO)C(=O)C2CCN1CC2` (stereo unspecified) [PRIMA-1MET] + CC(=O)Nc1cccc(-n2c(=O)n(C3CC3)c(=O)c3c(Nc4ccc(I)cc4F)n(C)c(=O)c(C)c32)c1 [Trametinib] (partner 0.02 µM), the relative viability was determined as 0.77.
On the same count and under the same terms, under `COCC1(CO)C(=O)C2CCN1CC2` (stereo unspecified) [PRIMA-1MET] + Nc1ncn([C@H]2C[C@H](O)[C@@H](CO)O2)c(=O)n1 [Decitabine] (partner 2 µM) stands 0.671.

The assay is the same for the next values; noted with them: first compound 0.6325 µM.
For `COCC1(CO)C(=O)C2CCN1CC2` (stereo unspecified) [PRIMA-1MET] + COc1cc2c(Oc3ccc(NC(=O)C4(C(=O)Nc5ccc(F)cc5)CC4)cc3F)ccnc2cc1OCCCN1CCOCC1 [Foretinib] (partner 0.25 µM), the relative viability was 0.986.
Turning to `COCC1(CO)C(=O)C2CCN1CC2` (stereo unspecified) [PRIMA-1MET] + NC(=O)Nc1cc(-c2cccc(F)c2)sc1C(=O)N[C@H]1CCCNC1 [AZD7762] (partner 0.2 µM), the relative viability was found to be 0.371.
`COCC1(CO)C(=O)C2CCN1CC2` (stereo unspecified) [PRIMA-1MET] + Nc1nc2[nH]cc(CCc3ccc(C(=O)N[C@@H](CCC(=O)O)C(=O)O)cc3)c2c(=O)[nH]1 [Pemetrexed] (partner 0.2 µM) yielded a relative viability of 0.852.
Still for that read-out and setting: under `COCC1(CO)C(=O)C2CCN1CC2` (stereo unspecified) [PRIMA-1MET] + CC(=O)Nc1cccc(-n2c(=O)n(C3CC3)c(=O)c3c(Nc4ccc(I)cc4F)n(C)c(=O)c(C)c32)c1 [Trametinib] (partner 0.02 µM) stands 1.06.
